Consider one compound from ChEMBL document CHEMBL1121597, “Synthesis and some pharmacological properties of [8-L-tryptophan]oxytocin” (1980).

Assay [1] concerns Rattus norvegicus. Kind of assay: Compound was evaluated for the vasopressor activity when injected intravenously into anesthetized rats pretreated with phenoxybenzamine. The assay is classed as functional.
Assay [2] has as its system Rattus norvegicus. The experiment in a line: Compound was evaluated for the intrauterine pressure assayed by intravenous injection into anesthetized rats pretreated with diethylstilbestrol. In kind it is functional.

Positions of bridges follow the written chain, without caps; N, C: chain ends. Residues, ends and D or L forms follow the SMILES beside them.

Take `CC[C@H](C)[C@@H]1NC(=O)[C@H](Cc2ccc(O)cc2)NC(=O)[C@@H](N)CSSC[C@@H](C(=O)N2CCC[C@H]2C(=O)N[C@@H](Cc2c[nH]c3ccccc23)C(=O)NCC(N)=O)NC(=O)[C@H](CC(N)=O)NC(=O)[C@H](CCC(N)=O)NC1=O` (H-CYIQNCPWG-NH2; disulfide 1-6): the Activity is given as less than 0.25 U mg-1 in the assay on Rattus norvegicus [1] and 50 U mg-1 in the assay with Rattus norvegicus [2].
